Laboratory results from PubChem BioAssay (NCI).
Several values for one entry are separate records, joined by “and”; a condition that tells them apart may be missing. Identical values can stand only once.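 Dose response: 5 concentrations. Exposure: 48 h. Format: 96-well plates. Endpoint: linear interpolation; highest concentration if not reached. Abbreviation: GI50, concentration required for 50% inhibition of growth. The concentration for full growth arrest is given as TGI.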 Where a SMILES comes first, the peptide text is derived from it. Bridges are numbered along the chain shown (N, C = ends). [ ]: non-standard residue; d: D form. The star is where a group is joined. ξ: configuration not given here. ξNMePhe(4-NMe2) = CNC(Cc1ccc(N(C)C)cc1)C(=O)O; Picolinoyl(3-OH) = O=C(c1ncccc1O)*; ξPip(4-oxo) = O=C1CCNC(C(=O)O)C1; Phg = N[CH](C(=O)O)c1ccccc1; Abu = CC[CH](N)C(=O)O

Experiments:
Assay in all cases: DTP human tumour cell line panel, 48 h
786-0 renal = system: 786-0 renal
A498 renal = system: A498 renal
CCRF-CEM leukemia = system: CCRF-CEM leukemia
HL-60(TB) leukemia = system: HL-60(TB) leukemia
HT29 colon = system: HT29 colon
M14 melanoma = system: M14 melanoma
MCF7 breast = system: MCF7 breast
NCI-H460 lung = system: NCI-H460 lung
PC-3 prostate = system: PC-3 prostate
SF-268 CNS = system: SF-268 CNS
SK-OV-3 ovarian = system: SK-OV-3 ovarian
SNB-19 CNS = system: SNB-19 CNS
SW-620 colon = system: SW-620 colon
T-47D breast = system: T-47D breast
U251 CNS = system: U251 CNS
BT-549 breast = system: BT-549 breast
HOP-92 NSCLC = system: HOP-92 NSCLC
NCI-H226 lung = system: NCI-H226 lung
NCI-H23 lung = system: NCI-H23 lung
UACC-257 melanoma = system: UACC-257 melanoma
A549 NSCLC = system: A549 NSCLC
ACHN renal = system: ACHN renal
CAKI-1 renal = system: CAKI-1 renal
COLO 205 colon = system: COLO 205 colon
DU-145 prostate = system: DU-145 prostate
EKVX NSCLC = system: EKVX NSCLC
HCC-2998 colon = system: HCC-2998 colon
HCT-116 colon = system: HCT-116 colon
HCT-15 colon = system: HCT-15 colon
HOP-62 NSCLC = system: HOP-62 NSCLC
HS 578T breast = system: HS 578T breast
IGROV1 ovarian = system: IGROV1 ovarian
K-562 leukemia = system: K-562 leukemia
KM12 colon = system: KM12 colon
MALME-3M melanoma = system: MALME-3M melanoma
MDA-MB-231 breast = system: MDA-MB-231 breast
MDA-MB-435 = system: MDA-MB-435
MOLT-4 leukemia = system: MOLT-4 leukemia
NCI-H522 lung = system: NCI-H522 lung
NCI/ADR-RES ovarian = system: NCI/ADR-RES ovarian
OVCAR-3 ovarian = system: OVCAR-3 ovarian
OVCAR-4 ovarian = system: OVCAR-4 ovarian
OVCAR-5 ovarian = system: OVCAR-5 ovarian
OVCAR-8 ovarian = system: OVCAR-8 ovarian
RPMI-8226 leukemia = system: RPMI-8226 leukemia
RXF 393 renal = system: RXF 393 renal
SF-295 CNS = system: SF-295 CNS
SF-539 CNS = system: SF-539 CNS
SK-MEL-2 melanoma = system: SK-MEL-2 melanoma
SK-MEL-28 melanoma = system: SK-MEL-28 melanoma
SK-MEL-5 melanoma = system: SK-MEL-5 melanoma
SN12C renal = system: SN12C renal
SNB-75 CNS = system: SNB-75 CNS
SR leukemia = system: SR leukemia
TK-10 renal = system: TK-10 renal
UACC-62 melanoma = system: UACC-62 melanoma
UO-31 renal = system: UO-31 renal
LOX IMVI melanoma = system: LOX IMVI melanoma

Compound: Nc1ncnc2c(C3OC(CO)C(O)C3O)nsc12 (stereo unspecified)
- TGI (786-0 renal): > 100 µM
- TGI (A498 renal): 1.41 µM
- TGI (CCRF-CEM leukemia): 16.5 µM and > 100 µM
- GI50 (HL-60(TB) leukemia): 1520 nM
- TGI (HL-60(TB) leukemia): 7.5 µM
- TGI (HT29 colon): > 100 µM
- TGI (M14 melanoma): > 75 µM
- TGI (MCF7 breast): > 100 µM
- TGI (NCI-H460 lung): > 100 µM
- GI50 (PC-3 prostate): 4.6 µM
- TGI (SF-268 CNS): > 100 µM
- GI50 (SK-OV-3 ovarian): 3.25 µM
- TGI (SK-OV-3 ovarian): 20.3 µM
- TGI (SNB-19 CNS): > 100 µM
- TGI (SW-620 colon): > 100 µM
- GI50 (T-47D breast): < 16.2 nM
- TGI (T-47D breast): > 48.6 µM
- TGI (U251 CNS): > 100 µM

Compound: CCC1NC(=O)C(NC(=O)c2ncccc2O)C(C)OC(=O)C(c2ccccc2)NC(=O)C2CC(=O)CCN2C(=O)C(Cc2ccc(N(C)C)cc2)N(C)C(=O)C2CCCN2C1=O (stereo unspecified) (tested in a mixture with another compound) ({Picolinoyl(3-OH)}-T[Abu]P[ξNMePhe(4-NMe2)][ξPip(4-oxo)][Phg]; ester 1-C; configuration not given here)
- TGI (BT-549 breast): 53.2 µM
- TGI (HOP-92 NSCLC): 25.5 µM
- TGI (NCI-H226 lung): 42.1 µM
- TGI (NCI-H23 lung): 34.5 µM
- TGI (UACC-257 melanoma): 22.3 µM

Compound: Oc1c(N=Nc2ccccc2)c2ccccc2c2ccc3ccccc3c12
- TGI (786-0 renal): > 100 µM
- TGI (A498 renal): > 100 µM
- TGI (A549 NSCLC): > 100 µM
- TGI (ACHN renal): > 100 µM
- TGI (BT-549 breast): > 100 µM
- TGI (CAKI-1 renal): > 100000 nM
- TGI (CCRF-CEM leukemia): > 100 µM
- TGI (COLO 205 colon): > 100000 nM
- TGI (DU-145 prostate): > 100 µM
- TGI (EKVX NSCLC): > 100 µM
- TGI (HCC-2998 colon): > 100 µM
- TGI (HCT-116 colon): > 100 µM
- TGI (HCT-15 colon): > 100 µM
- TGI (HL-60(TB) leukemia): > 100 µM
- TGI (HOP-62 NSCLC): > 100 µM
- TGI (HOP-92 NSCLC): > 100 µM
- TGI (HS 578T breast): > 100 µM
- TGI (HT29 colon): > 100 µM
- TGI (IGROV1 ovarian): > 100 µM
- TGI (K-562 leukemia): > 100 µM
- TGI (KM12 colon): > 100 µM
- TGI (M14 melanoma): > 100 µM
- TGI (MALME-3M melanoma): > 100000 nM
- TGI (MCF7 breast): > 100 µM
- TGI (MDA-MB-231 breast): > 100000 nM
- TGI (MDA-MB-435): > 100 µM
- TGI (MOLT-4 leukemia): > 100 µM
- TGI (NCI-H226 lung): > 100 µM
- TGI (NCI-H23 lung): > 100 µM
- TGI (NCI-H460 lung): > 100 µM
- TGI (NCI-H522 lung): > 100 µM
- TGI (NCI/ADR-RES ovarian): > 100000 nM
- TGI (OVCAR-3 ovarian): > 100 µM
- TGI (OVCAR-4 ovarian): > 100 µM
- TGI (OVCAR-5 ovarian): > 100 µM
- TGI (OVCAR-8 ovarian): > 100 µM
- TGI (PC-3 prostate): > 100 µM
- TGI (RPMI-8226 leukemia): > 100 µM
- TGI (RXF 393 renal): > 100 µM
- TGI (SF-268 CNS): > 100 µM
- TGI (SF-295 CNS): > 100000 nM
- TGI (SF-539 CNS): 85.2 µM
- TGI (SK-MEL-2 melanoma): > 100 µM
- TGI (SK-MEL-28 melanoma): > 100 µM
- TGI (SK-MEL-5 melanoma): > 100000 nM
- TGI (SK-OV-3 ovarian): > 100 µM
- TGI (SN12C renal): > 100 µM
- TGI (SNB-19 CNS): > 100 µM
- TGI (SNB-75 CNS): > 100 µM
- TGI (SR leukemia): 32.6 µM
- TGI (SW-620 colon): > 100 µM
- TGI (T-47D breast): > 100 µM
- TGI (TK-10 renal): > 100 µM
- TGI (U251 CNS): > 100 µM
- TGI (UACC-257 melanoma): > 100 µM
- TGI (UACC-62 melanoma): > 100 µM
- TGI (UO-31 renal): > 100 µM

Compound: COc1cc(C2c3cc4c(cc3OC(NCc3ccccc3)C2C)OCO4)cc(OC)c1OC (stereo unspecified)
- TGI (786-0 renal): 44.1 µM
- TGI (A498 renal): > 100 µM
- TGI (A549 NSCLC): > 94 µM
- TGI (ACHN renal): > 39.8 µM
- TGI (BT-549 breast): 16.4 µM
- TGI (CAKI-1 renal): 982 nM
- TGI (CCRF-CEM leukemia): 26.5 µM
- TGI (COLO 205 colon): 726 nM
- TGI (DU-145 prostate): > 100 µM
- TGI (EKVX NSCLC): > 100 µM
- TGI (HCC-2998 colon): 4 µM
- TGI (HCT-15 colon): > 44.4 µM
- TGI (HL-60(TB) leukemia): 0.699 µM
- TGI (HOP-62 NSCLC): > 64 µM
- TGI (HOP-92 NSCLC): 20.3 µM
- TGI (HT29 colon): 3.32 µM
- TGI (IGROV1 ovarian): > 36.5 µM
- TGI (K-562 leukemia): > 37.8 µM
- TGI (KM12 colon): 5.69 µM
- TGI (LOX IMVI melanoma): 17.2 µM
- TGI (M14 melanoma): 67.1 µM
- TGI (MALME-3M melanoma): 671 nM
- TGI (MCF7 breast): 48.7 µM
- TGI (MDA-MB-231 breast): 2060 nM
- TGI (MOLT-4 leukemia): 31.8 µM
- TGI (NCI-H226 lung): 7.33 µM
- TGI (NCI-H23 lung): > 48.2 µM
- TGI (NCI-H460 lung): > 34.7 µM
- TGI (NCI-H522 lung): 4.02 µM
- TGI (NCI/ADR-RES ovarian): 723 nM
- TGI (OVCAR-3 ovarian): 3.1 µM
- TGI (OVCAR-4 ovarian): > 100 µM
- TGI (OVCAR-5 ovarian): > 100 µM
- TGI (OVCAR-8 ovarian): > 100 µM
- TGI (RPMI-8226 leukemia): 24.2 µM
- TGI (SF-268 CNS): > 36.8 µM
- TGI (SF-295 CNS): 673 nM
- TGI (SF-539 CNS): 0.817 µM
- TGI (SK-MEL-2 melanoma): > 66.6 µM
- TGI (SK-MEL-28 melanoma): > 100 µM
- TGI (SK-MEL-5 melanoma): 1780 nM
- TGI (SK-OV-3 ovarian): > 35.3 µM
- TGI (SN12C renal): > 52.1 µM
- TGI (SNB-19 CNS): > 100 µM
- TGI (SW-620 colon): > 36 µM
- TGI (TK-10 renal): > 100 µM
- TGI (U251 CNS): 21.2 µM
- TGI (UACC-257 melanoma): > 100 µM
- TGI (UACC-62 melanoma): 14.1 µM
- TGI (UO-31 renal): 26.4 µM

Compound: C=C(CNCCc1ccc(O)cc1)[C@@H]1CC[C@]2(COC3CCCCO3)CC[C@]3(C)[C@H](CC[C@@H]4[C@@]5(C)CCC(N)C(C)(C)[C@@H]5CC[C@]43C)[C@@H]12 (stereo partly specified)
- GI50 (K-562 leukemia): 305 nM
- TGI (K-562 leukemia): > 100 µM
- GI50 (SR leukemia): 289 nM
- TGI (SR leukemia): > 100 µM
- GI50 (U251 CNS): 306 nM
- TGI (U251 CNS): > 100 µM
